Values belong to the compound of their own block, whether it stands above or below them. The source made the active and inactive calls.
Assays:
[1] = Luminescence Cell-Based Dose Retest to Confirm Inhibitors of Cancer Stem Cells. [Related pubchem assays (depositor defined):AID2717, AID2721]; type: functional; details: Homo sapiens
[2] = Fluorescence-based cell-based high throughput dose response assay for inhibitors of the interaction of nucleotide-binding oligomerization domain containing 2 (NOD2) and the receptor-interacting serine-threonine kinase 2 (RIPK2).; type: functional; details: Homo sapiens
[3] = Jurkat T cell cytotoxicity, dose response, cytotoxicity control for P. falciparum gametocyte viability project, luminescence (AID 1117277); type: functional, cell-based;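 further: potency reflects loss of cellular ATP meaning fewer viable cells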
[4] = P. falciparum late gametocyte killing, dose response, luminescence (AID 1117278); type: functional, cell-based;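 further: gametocytes exposed to compound for 24 hours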
[5] = biological target: T1, Sentrin-specific protease 8 (Homo sapiens, UniProt Q96LD8); type: functional
T1 sequence (Q96LD8 whole entry): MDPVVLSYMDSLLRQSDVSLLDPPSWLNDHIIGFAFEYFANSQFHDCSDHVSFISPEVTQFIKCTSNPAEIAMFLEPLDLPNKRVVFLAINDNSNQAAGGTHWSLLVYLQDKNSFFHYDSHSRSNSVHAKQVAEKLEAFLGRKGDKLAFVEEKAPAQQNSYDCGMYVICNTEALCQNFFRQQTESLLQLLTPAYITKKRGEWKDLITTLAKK

[6] = biological target: T1, Sentrin-specific protease 8; type: functional; remark: listed apart in the source
[7] = biological target: NAD-dependent protein deacylase sirtuin-5, mitochondrial (Homo sapiens, UniProt Q9NXA8); assay: SIRT5 desuccinylase inhibitors, dose response, biochemical, fluorescence imaging, cherry-pick, set 5 (AID 720591);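 further: desuccinylation of succinyl peptide AMC substrate read as fluorescence after trypsin release; potency of inhibitors that lower fluorescence and may act on trypsin instead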
[8] = biological target: Heat shock protein HSP 90-alpha (Homo sapiens, UniProt P07900); type: functional, organism-based
[9] = biological target: T2, Cysteine protease ATG4B (Homo sapiens, UniProt Q9Y4P1); type: functional;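 further: Fluorescence-based dose-response confirmation assay measuring inhibition of ATG4B activity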
T2 sequence (Q9Y4P1 whole entry): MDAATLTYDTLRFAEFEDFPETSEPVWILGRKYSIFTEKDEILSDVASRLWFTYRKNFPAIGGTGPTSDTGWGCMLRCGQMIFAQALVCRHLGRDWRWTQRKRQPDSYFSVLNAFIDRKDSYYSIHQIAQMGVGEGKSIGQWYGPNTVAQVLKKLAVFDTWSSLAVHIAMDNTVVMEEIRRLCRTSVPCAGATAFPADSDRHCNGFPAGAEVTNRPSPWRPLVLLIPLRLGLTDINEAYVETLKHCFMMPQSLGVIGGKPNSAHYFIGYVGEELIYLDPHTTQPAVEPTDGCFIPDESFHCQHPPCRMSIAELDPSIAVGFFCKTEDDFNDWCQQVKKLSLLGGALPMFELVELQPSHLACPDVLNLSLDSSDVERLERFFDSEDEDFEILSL

[10] = biological target: Phospholipase A2 (Homo sapiens, UniProt P04054); type: functional;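 further: confirmatory dose-response counterscreen on phospholipase A2, testing hits that came from an ultra-high-throughput screen for ATG4B inhibitors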
[11] = biological target: T3, Rac GTPase-activating protein 1 (Homo sapiens, UniProt Q9H0H5); assay: MgcRacGAP GTPase-activating activity inhibitors, confirmation, biochemical, ADP Hunter fluorescence, primary and confirmatory (AID 624330); type: functional
T3 sequence (Q9H0H5 whole entry): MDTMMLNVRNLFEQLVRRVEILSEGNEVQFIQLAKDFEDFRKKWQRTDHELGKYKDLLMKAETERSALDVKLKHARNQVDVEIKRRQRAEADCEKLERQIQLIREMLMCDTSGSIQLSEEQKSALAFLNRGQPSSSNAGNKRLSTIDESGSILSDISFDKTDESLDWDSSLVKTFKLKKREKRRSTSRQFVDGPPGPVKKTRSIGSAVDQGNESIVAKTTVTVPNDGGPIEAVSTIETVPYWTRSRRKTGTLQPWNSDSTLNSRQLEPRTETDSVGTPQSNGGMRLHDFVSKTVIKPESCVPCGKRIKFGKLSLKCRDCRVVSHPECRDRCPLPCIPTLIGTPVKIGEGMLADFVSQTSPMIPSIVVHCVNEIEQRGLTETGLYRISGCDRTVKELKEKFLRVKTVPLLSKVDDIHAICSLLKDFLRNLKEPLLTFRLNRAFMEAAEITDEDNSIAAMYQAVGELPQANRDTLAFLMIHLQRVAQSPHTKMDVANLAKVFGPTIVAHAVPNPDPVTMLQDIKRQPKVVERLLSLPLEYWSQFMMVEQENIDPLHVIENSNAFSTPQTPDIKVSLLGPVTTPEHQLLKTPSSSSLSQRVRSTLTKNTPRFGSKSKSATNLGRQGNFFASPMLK

[12] = biological target: T4, Mannose-6-phosphate isomerase (Homo sapiens, UniProt P34949); assay: human PMI inhibitors, high substrate, primary screen, biochemical, fluorescence intensity, high mannose 6-phosphate (AID 1220)
T4 sequence (P34949 whole entry): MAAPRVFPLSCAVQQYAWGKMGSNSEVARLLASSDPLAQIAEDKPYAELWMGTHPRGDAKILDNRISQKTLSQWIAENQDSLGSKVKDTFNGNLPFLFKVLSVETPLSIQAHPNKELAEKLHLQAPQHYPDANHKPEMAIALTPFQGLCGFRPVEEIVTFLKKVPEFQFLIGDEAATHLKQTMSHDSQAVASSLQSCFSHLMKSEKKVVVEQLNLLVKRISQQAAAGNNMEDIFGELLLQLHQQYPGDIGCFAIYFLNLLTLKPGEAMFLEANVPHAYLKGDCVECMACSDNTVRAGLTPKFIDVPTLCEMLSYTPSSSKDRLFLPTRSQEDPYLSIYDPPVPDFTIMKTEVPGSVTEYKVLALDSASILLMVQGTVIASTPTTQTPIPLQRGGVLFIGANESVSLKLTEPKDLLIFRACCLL

[13] = tested on: HEK293; assay: inhibitors of LMP1-driven NF-kB reporter, dose response, cell-based, HEK293, luciferase, cherry-pick (AID 588343); type: functional; details: Homo sapiens
[14] = biological target: T5, Nuclear receptor subfamily 0 group B member 1 (Homo sapiens, UniProt P51843); assay: Luminescence-based cell-based high throughput dose response assay for inhibitors of the orphan nuclear receptor subfamily 0, group B, member 1 (DAX1; NR0B1). [Related pubchem assays (depositor defined):AID504766, AID504790]; type: functional
T5 sequence (P51843 whole entry): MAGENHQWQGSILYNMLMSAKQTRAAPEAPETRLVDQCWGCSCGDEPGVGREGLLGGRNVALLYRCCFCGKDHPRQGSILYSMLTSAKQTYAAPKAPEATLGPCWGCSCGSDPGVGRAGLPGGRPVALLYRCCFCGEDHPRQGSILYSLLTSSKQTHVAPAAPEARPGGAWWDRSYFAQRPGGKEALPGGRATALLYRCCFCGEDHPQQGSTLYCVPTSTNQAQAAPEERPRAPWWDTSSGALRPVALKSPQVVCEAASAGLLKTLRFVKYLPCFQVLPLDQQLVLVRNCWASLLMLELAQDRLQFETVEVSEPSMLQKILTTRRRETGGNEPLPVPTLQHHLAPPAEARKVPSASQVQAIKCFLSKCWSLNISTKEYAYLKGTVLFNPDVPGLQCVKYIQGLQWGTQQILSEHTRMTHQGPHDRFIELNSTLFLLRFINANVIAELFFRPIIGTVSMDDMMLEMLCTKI

[15] = tested on: HEK293; assay: cells; type: functional, cell-based; details: Homo sapiens
[16] = tested on: Vero; assay: Vero cell toxicity, dose response, cytotoxicity control, plate reader, cherry-pick samples (AID 687020); type: functional, cell-based; details: Chlorocebus sabaeus
[17] = Shn3 3'UTR reporter inhibitors, dose response, cell-based, Clone20 osteoblasts, firefly luciferase, cherry-picked (AID 624132); type: functional;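 further: firefly luciferase luminescence from reporter carrying the Shn3 3'UTR in osteoblasts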
[18] = biological target: Paired box protein Pax-8 (Homo sapiens, UniProt Q06710); assay: inhibitors of PAX8-driven TPO luciferase reporter, dose response, RMG-I cells, cherry-pick (AID 687027); type: functional, cell-based;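 further: luciferase reporter driven by Pax8 target thyroperoxidase promoter measured by SteadyGlo luminescence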
[19] = control 3'UTR Renilla luciferase suppression, dose response, counter-screen for Shn3 inhibitor project, cell-based, Clone20-Shn3RL, cherry-picked (AID 624133); type: functional
[20] = HepG2 cell cytotoxicity, dose response, cytotoxicity control for Shn3 inhibitor project, CellTiter-Glo, cherry-picked (AID 624134); type: functional, cell-based
[21] = HeLa cell cytotoxicity, dose response, cytotoxicity control for MgcRacGAP inhibitor project (AID 624300); type: functional
[22] = LGR2 antagonists, dose response, cell-based, HEK293, CRE-luciferase reporter, cherry pick, set 2 (AID 743343); type: functional;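 further: transfected cells were stimulated with diluted bursicon conditioned medium after compound addition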
[23] = HepG2 cell cytotoxicity, dose response, cytotoxicity control, plate reader, cherry-pick, antagonist series (AID 743416); type: functional, cell-based
[24] = MC4R antagonists, dose response, counter-screen for LGR2 antagonist project, cell-based, plate reader, cherry pick (AID 743444); type: functional;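 further: transfected HEK 293 cells stimulated with alpha-MSH peptide; potency of inhibitors of the alpha-MSH evoked signal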
[25] = A549 cell cytotoxicity, dose response, cytotoxicity control, plate reader, cherry-pick, antagonist series (AID 743412); type: functional, cell-based
[26] = HeLa 4N DNA content increase, dose response, cell-based, IC50 (AID 1117351); type: functional
[27] = HeLa 2N DNA content increase, dose response, cell-based, IC50 (AID 1117349); type: functional

NAD-dependent protein deacylase sirtuin-5, mitochondrial, sequence (Q9NXA8 whole entry): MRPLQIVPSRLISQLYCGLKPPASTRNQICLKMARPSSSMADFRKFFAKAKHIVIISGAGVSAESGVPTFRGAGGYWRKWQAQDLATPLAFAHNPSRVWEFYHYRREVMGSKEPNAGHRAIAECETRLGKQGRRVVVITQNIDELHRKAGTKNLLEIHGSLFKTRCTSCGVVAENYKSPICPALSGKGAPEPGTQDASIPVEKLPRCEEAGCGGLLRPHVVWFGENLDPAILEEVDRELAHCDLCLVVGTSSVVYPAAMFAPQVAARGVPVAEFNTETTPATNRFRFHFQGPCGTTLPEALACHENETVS
Paired box protein Pax-8, sequence (Q06710 whole entry): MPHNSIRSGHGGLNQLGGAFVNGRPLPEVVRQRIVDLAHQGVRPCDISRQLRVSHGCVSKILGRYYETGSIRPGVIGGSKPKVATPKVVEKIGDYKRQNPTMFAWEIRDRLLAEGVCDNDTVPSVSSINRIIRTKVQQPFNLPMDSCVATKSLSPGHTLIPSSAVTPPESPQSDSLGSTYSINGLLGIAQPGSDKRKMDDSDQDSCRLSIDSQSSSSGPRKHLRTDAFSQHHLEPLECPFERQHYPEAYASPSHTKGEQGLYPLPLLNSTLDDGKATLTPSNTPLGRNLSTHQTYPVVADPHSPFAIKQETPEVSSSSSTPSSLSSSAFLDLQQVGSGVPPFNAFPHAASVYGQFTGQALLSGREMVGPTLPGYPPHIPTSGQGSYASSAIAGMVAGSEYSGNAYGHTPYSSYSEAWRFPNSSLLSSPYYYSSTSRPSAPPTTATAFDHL
Phospholipase A2, sequence (P04054 whole entry): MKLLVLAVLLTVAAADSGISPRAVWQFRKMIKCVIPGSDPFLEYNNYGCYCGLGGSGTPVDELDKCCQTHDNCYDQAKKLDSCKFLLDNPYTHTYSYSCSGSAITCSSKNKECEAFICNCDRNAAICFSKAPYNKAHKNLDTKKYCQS

SMILES: O=C(CN(c1cccc(C(F)(F)F)c1)S(=O)(=O)c1ccc(Cl)c([N+](=O)[O-])c1)NCc1ccc(F)cc1
- AC50 [1]: 1.81 µM (active)
- IC50 [2]: 5.86 µM (active)

SMILES: SC1=NC[C@H](c2ccccc2)N1CCCCC1CCCCC1
- IC50 [3]: 79.3 µM (inactive)
- IC50 [4]: > 109 µM (inactive)

SMILES: CCN(CC)CC(=O)Nc1ccc2c(c1)N(C(=O)CN(CC)CC)c1ccccc1CC2
- IC50 [5]: 15.4 µM (active)
- IC50 [6]: 19.1 µM (active)

- AC50 [7]: 22.1 µM (active)
SMILES: COc1cccc(-n2c(SCC(N)=O)nnc2-c2ccco2)c1

SMILES: Oc1ccc(N=Nc2nc(-c3ccccc3)c(-c3ccccc3)[nH]2)cc1
- AC50 [8]: 4.75 µM (active)
- IC50 [9]: 9.13 µM (active)
- AC50 [1]: 3.9 µM (active)
- IC50 [10]: 6.36 µM (active)

- IC50 [11]: 29.5 µM (active)
- IC50 [12]: 23.8 µM (active)
SMILES: COc1ccc2c(c1)-c1nc(N)sc1CC2

SMILES: CC(NC(=O)CCc1nnc(CCCc2ccccc2)o1)c1ccccc1 (stereo not drawn)
- IC50 [3]: > 83.3 µM (inactive)
- IC50 [4]: > 109 µM (inactive)

SMILES: Cc1cc(C)nc(N=C(Nc2ccccc2Br)NS(=O)(=O)Cc2ccccc2)n1
- AC50 [13]: 33.5 µM (active)

- AC50 [8]: 0.786 µM (active)
SMILES: O=C(Nc1ccccc1)C(Cl)C(=O)c1ccccc1 (stereo not drawn)

SMILES: COc1ccc(S(=O)(=O)NCc2ccc(C(=O)NCc3cccnc3)cc2)cc1
- IC50 [3]: > 83.3 µM (inactive)
- IC50 [4]: > 109 µM (inactive)

SMILES: O=C(CCc1nc2ccccc2[nH]1)N1CCc2ccccc2C1
- IC50 [5]: 17.6 µM (active)
- IC50 [6]: > 100 µM (inactive)

SMILES: CCCCC(=O)/N=C(\N)Nc1nc2ccccc2o1
- IC50 [14]: > 67.6 µM (inactive)
- IC50 [15]: > 67.6 µM (inactive)

SMILES: CC(C)(C)OC(=O)NCCCCCNC(=O)c1[nH]cnc1C(=O)N1CCc2ccccc2C1
- IC50 [5]: 14.9 µM (active)
- IC50 [6]: > 100 µM (inactive)

- AC50 [8]: 8.04 µM (active)
SMILES: Cc1cccc(COC(=O)CCCNC(=O)c2ccc(Cl)cc2)c1

SMILES: O=C1c2ccccc2[C@@H]2C[C@@H](O)[C@H](Nc3cccc4ccccc34)CCN12
- AC50 [16]: 29.8 µM (active)

- AC50 [7]: > 30 µM (inactive)
SMILES: O=C(O)c1ccc(CNCc2cccc(Cl)c2)cc1

SMILES: O=C(NN=Cc1ccc(N(CCCl)CCCl)cc1Cl)c1cccnc1
- AC50 [13]: 1.26 µM (active)

SMILES: CC(CNC(=O)Cn1ccc(NC(=O)OCc2ccccc2)nc1=O)c1ccccc1 (stereo not drawn)
- AC50 [16]: 24.6 µM (active)

SMILES: CC(OC(=O)c1ccc2c(=O)n3c(nc2c1)CCC3)C(=O)NC1CCCCC1C (stereo not drawn)
- AC50 [16]: 31.1 µM (active)

- AC50 [7]: 22.3 µM (active)
SMILES: CCOc1ccc(NC(=O)COC(=O)Cc2ccsc2)cc1

SMILES: C=C1C(=O)[C@]23C[C@H]1CCC2[C@]1(C)CCC[C@@](C)(C(=O)O)C1C[C@@H]3O (stereo partly drawn)
- AC50 [17]: 1.2 µM (active)
- AC50 [18]: 1.77 µM (active)
- AC50 [19]: 8.47 µM (active)
- IC50 [2]: 7.03 µM (active)
- AC50 [20]: > 70 µM (inactive)

SMILES: O=c1c(-c2ccccc2)c[nH]n1-c1cccc([N+](=O)[O-])c1
- IC50 [14]: > 67.5 µM (inactive)
- IC50 [15]: > 67.5 µM (inactive)
- IC50 [11]: 48.4 µM (active)
- CC50 [21]: 100 µM (active)

SMILES: C[C@H]1CN([C@@H](C)CO)C(=O)c2cccc(NC(=O)NC3CCCCC3)c2O[C@@H]1CN(C)Cc1ccc(C(F)(F)F)cc1
- AC50 [22]: 46.4 µM (active)
- AC50 [23]: 26.4 µM (active)
- AC50 [24]: 17.1 µM (active)
- AC50 [25]: 19.2 µM (active)

SMILES: CC(C)=CCC/C(C)=C/CC/C(C)=C/C(=O)OCC(=O)[C@@]1(O)CC[C@H]2[C@@H]3CCC4=CC(=O)C=C[C@]4(C)[C@H]3[C@@H](O)C[C@@]21C
- IC50 [26]: > 10 µM (inactive)
- IC50 [27]: > 10 µM (inactive)

- IC50 [12]: > 50 µM (not active)
SMILES: O=C(CNc1cccc2ccccc12)N/N=C/c1ccc(OC(=O)/C=C/c2ccco2)cc1

— ChEMBL document CHEMBL1201862, “PubChem BioAssay data set” (2004)
